# Reference: US10294202B2, “Pyrrolidinones as herbicides” (FMC Corporation, priority 2013, dated 2019)
# How the values were obtained:
# oat, wild = test: Test C pre-/postemergence herbicide test; assay type: in vivo, Avena fatua
# How it was run: (§1)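 Test compounds, formulated in a surfactant-containing non-phytotoxic solvent blend, are applied to seeded loam/sand soil (preemergence) and to young plants at the 1- to 4-leaf stage in peat-based medium (postemergence). Plants stay 13 to 15 days under greenhouse conditions, then are scored visually relative to controls, 0 = no effect, 100 = complete control.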
# ducksalad = test: Test B flooded paddy test; assay type: in vivo, Heteranthera limosa; details: 250 g ai/ha, Flood; scale of 0 to 100 where 0 is no effect and 100 is complete control
# How it was run: (§2)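 Scored visually 0–100 (0 no effect, 100 complete control) versus controls after 13 to 15 greenhouse days. Treatment: compound added to paddy water kept 3 cm above soil, on 2-leaf-stage plants.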
# ragweed = test: Test C pre-/postemergence herbicide test; assay type: in vivo, Ambrosia elatior
# How it was run: as §1
# lambsquarters = test: Test C pre-/postemergence herbicide test; assay type: in vivo, Chenopodium album
# How it was run: as §1
# soybean = test: Test C pre-/postemergence herbicide test; assay type: in vivo, Glycine max
# How it was run: as §1
# ryegrass, Italian = test: Test C pre-/postemergence herbicide test; assay type: in vivo, Lolium multiflorum
# How it was run: as §1
# pigweed = test: Test C pre-/postemergence herbicide test; assay type: in vivo, Amaranthus retroflexus
# How it was run: as §1
# morningglory = test: Test C pre-/postemergence herbicide test; assay type: in vivo, Ipomoea coccinea
# How it was run: as §1
# galium = test: Test C pre-/postemergence herbicide test; assay type: in vivo, Galium aparine
# How it was run: as §1
# barnyardgrass [1] = test: Test B flooded paddy test; assay type: in vivo, Echinochloa crus-galli; details: 250 g ai/ha, Flood; scale of 0 to 100 where 0 is no effect and 100 is complete control
# How it was run: as §2
# sedge, umbrella = test: Test B flooded paddy test; assay type: in vivo, Cyperus difformis; details: 250 g ai/ha, Flood; scale of 0 to 100 where 0 is no effect and 100 is complete control
# How it was run: as §2
# wheat (winter wheat) = test: Test C pre-/postemergence herbicide test; assay type: in vivo, Triticum aestivum
# How it was run: as §1
# corn = test: Test C pre-/postemergence herbicide test; assay type: in vivo, Zea mays
# How it was run: as §1
# barnyardgrass [2] = test: Test C pre-/postemergence herbicide test; assay type: in vivo, Echinochloa crus-galli
# How it was run: as §1
# waterhemp = test: Test C pre-/postemergence herbicide test; assay type: in vivo, Amaranthus rudis
# How it was run: as §1
# [3] = Preemergence, 62 g ai/ha, scale 0 to 100
# [4] = Preemergence, 125 g ai/ha, scale 0 to 100 (0 no effect, 100 complete control)
# [5] = Preemergence, 31 g ai/ha, scale 0 to 100 (0 no effect, 100 complete control)
# [6] = Preemergence, 250 g ai/ha, scale 0 to 100 (0 no effect, 100 complete control)
# [7] = Postemergence, 8 g ai/ha, scale 0 to 100 (0 no effect, 100 complete control)
# [8] = Postemergence, 16 g ai/ha, scale 0 to 100 (0 no effect, 100 complete control)
# [9] = Postemergence, 31 g ai/ha, scale 0 to 100 (0 no effect, 100 complete control)
# [10] = Postemergence, 62 g ai/ha, scale 0 (no effect) to 100 (complete control)
# [11] = Preemergence, 31 g ai/ha, scale 0 to 100, 0 is no effect and 100 is complete control
# [12] = Preemergence, 62 g ai/ha, scale 0 to 100 (0 no effect, 100 complete control)
# [13] = Preemergence, 8 g ai/ha, scale 0 to 100
# [14] = Preemergence, 16 g ai/ha, scale 0 to 100
smiles,measurement,setting,value
O=C1NCC(c2cc(F)c(F)c(F)c2)C1C(=O)Nc1ccccc1C(F)(F)F (racemic) [Compound 33],"Plant response rating, Oat, Wild","oat, wild; [3]",0
same,"Plant response rating, Oat, Wild","oat, wild; [4]",20
same,"Plant response rating, Ducksalad",ducksalad,100
same,"Plant response rating, Ragweed",ragweed; [3],0
same,"Plant response rating, Ragweed",ragweed; [4],0
same,"Plant response rating, Lambsquarters",lambsquarters; [3],0
same,"Plant response rating, Lambsquarters",lambsquarters; [4],25
same,"Plant response rating, Soybean",soybean; [4],0
same,"Plant response rating, Ryegrass, Italian","ryegrass, Italian; [3]",0
same,"Plant response rating, Ryegrass, Italian","ryegrass, Italian; [4]",0
same,"Plant response rating, Pigweed",pigweed; [3],0
same,"Plant response rating, Pigweed",pigweed; [4],0
same,"Plant response rating, Morningglory",morningglory; [3],0
same,"Plant response rating, Morningglory",morningglory; [4],0
same,Galium plant response rating,galium; [5],0
same,"Plant response rating, Galium",galium; [3],0
same,"Plant response rating, Galium",galium; [4],60
same,"Plant response rating, Galium",galium; [6],90
same,"Plant response rating, Barnyardgrass",barnyardgrass [1],0
same,"Plant response rating, Sedge, Umbrella","sedge, umbrella",0
same,"Plant response rating, Wheat",wheat (winter wheat); [3],0
same,"Plant response rating, Wheat",wheat (winter wheat); [4],35
same,Corn plant response rating,corn; [5],0
same,"Plant response rating, Corn",corn; [3],10
same,"Plant response rating, Corn",corn; [4],20
same,"Plant response rating, Corn",corn; [6],30
CN1CC(c2ccc(F)cc2)C(C(=O)Nc2cccc(F)c2F)C1=O (centres unmarked) [Compound 271],"Plant response rating, Oat, Wild","oat, wild; [7]",0
same,"Plant response rating, Oat, Wild","oat, wild; [8]",0
same,"Plant response rating, Oat, Wild","oat, wild; [9]",0
same,"Plant response rating, Oat, Wild","oat, wild; [10]",0
same,"Plant response rating, Barnyardgrass",barnyardgrass [2]; [7],0
same,"Plant response rating, Barnyardgrass",barnyardgrass [2]; [8],0
same,"Plant response rating, Barnyardgrass",barnyardgrass [2]; [9],0
same,"Plant response rating, Barnyardgrass",barnyardgrass [2]; [10],0
same,Barnyardgrass plant response rating,barnyardgrass [2]; [11],90
same,Barnyardgrass plant response rating,barnyardgrass [2]; [12],95
same,"Plant response rating, Barnyardgrass",barnyardgrass [2]; [13],0
same,"Plant response rating, Barnyardgrass",barnyardgrass [2]; [14],75
same,"Plant response rating, Ragweed",ragweed; [7],0
same,"Plant response rating, Ragweed",ragweed; [8],15
same,"Plant response rating, Ragweed",ragweed; [9],25
same,"Plant response rating, Ragweed",ragweed; [10],40
same,Ragweed plant response rating,ragweed; [11],0
same,Ragweed plant response rating,ragweed; [12],10
same,"Plant response rating, Ragweed",ragweed; [13],0
same,"Plant response rating, Ragweed",ragweed; [14],0
same,"Plant response rating, Lambsquarters",lambsquarters; [7],10
same,"Plant response rating, Lambsquarters",lambsquarters; [8],45
same,"Plant response rating, Lambsquarters",lambsquarters; [9],50
same,"Plant response rating, Lambsquarters",lambsquarters; [10],55
same,Lambsquarters plant response rating,lambsquarters; [11],0
same,Lambsquarters plant response rating,lambsquarters; [12],20
same,"Plant response rating, Lambsquarters",lambsquarters; [13],0
same,"Plant response rating, Lambsquarters",lambsquarters; [14],0
same,"Plant response rating, Soybean",soybean; [7],5
same,"Plant response rating, Soybean",soybean; [8],45
same,"Plant response rating, Soybean",soybean; [9],15
same,"Plant response rating, Soybean",soybean; [10],60
same,Soybean plant response rating,soybean; [11],0
same,Soybean plant response rating,soybean; [12],0
same,"Plant response rating, Soybean",soybean; [13],0
same,"Plant response rating, Soybean",soybean; [14],0
same,"Plant response rating, Ryegrass, Italian","ryegrass, Italian; [7]",0
same,"Plant response rating, Ryegrass, Italian","ryegrass, Italian; [8]",0
same,"Plant response rating, Ryegrass, Italian","ryegrass, Italian; [9]",0
same,"Plant response rating, Ryegrass, Italian","ryegrass, Italian; [10]",0
same,"Ryegrass, Italian plant response rating","ryegrass, Italian; [11]",0
same,"Ryegrass, Italian plant response rating","ryegrass, Italian; [12]",10
same,"Plant response rating, Ryegrass, Italian","ryegrass, Italian; [13]",0
same,"Plant response rating, Ryegrass, Italian","ryegrass, Italian; [14]",0
same,"Plant response rating, Pigweed",pigweed; [7],5
same,"Plant response rating, Pigweed",pigweed; [8],5
same,"Plant response rating, Pigweed",pigweed; [9],10
same,"Plant response rating, Pigweed",pigweed; [10],30
same,Pigweed plant response rating,pigweed; [11],0
same,Pigweed plant response rating,pigweed; [12],25
same,"Plant response rating, Pigweed",pigweed; [14],0
same,"Plant response rating, Morningglory",morningglory; [7],0
same,"Plant response rating, Morningglory",morningglory; [8],0
same,"Plant response rating, Morningglory",morningglory; [9],10
same,"Plant response rating, Morningglory",morningglory; [10],45
same,Morningglory plant response rating,morningglory; [11],0
same,Morningglory plant response rating,morningglory; [12],10
same,"Plant response rating, Morningglory",morningglory; [13],0
same,"Plant response rating, Morningglory",morningglory; [14],0
same,"Plant response rating, Galium",galium; [7],0
same,"Plant response rating, Galium",galium; [8],5
same,"Plant response rating, Galium",galium; [9],30
same,"Plant response rating, Galium",galium; [10],30
same,"Plant response rating, Waterhemp",waterhemp; [7],0
same,"Plant response rating, Waterhemp",waterhemp; [8],0
same,"Plant response rating, Waterhemp",waterhemp; [9],0
same,"Plant response rating, Waterhemp",waterhemp; [10],5
same,Waterhemp plant response rating,waterhemp; [11],0
same,Waterhemp plant response rating,waterhemp; [12],35
same,"Plant response rating, Waterhemp",waterhemp; [13],0
same,"Plant response rating, Waterhemp",waterhemp; [14],0
same,"Plant response rating, Wheat",wheat (winter wheat); [7],0
same,"Plant response rating, Wheat",wheat (winter wheat); [8],0
same,"Plant response rating, Wheat",wheat (winter wheat); [9],0
same,"Plant response rating, Wheat",wheat (winter wheat); [10],0
same,Wheat plant response rating,wheat (winter wheat); [11],0
same,Wheat plant response rating,wheat (winter wheat); [12],0
same,"Plant response rating, Wheat",wheat (winter wheat); [13],0
same,"Plant response rating, Wheat",wheat (winter wheat); [14],0
same,"Plant response rating, Corn",corn; [7],0
same,"Plant response rating, Corn",corn; [8],0
same,"Plant response rating, Corn",corn; [9],0
same,"Plant response rating, Corn",corn; [10],0
same,Corn plant response rating,corn; [11],0
same,Corn plant response rating,corn; [12],0
same,"Plant response rating, Corn",corn; [13],0
same,"Plant response rating, Corn",corn; [14],0
